Data from the supplement of paper PMC10307832.

Assays:
Assay in all cases: relative viability (nuclei count vs DMSO), 5 days (fraction); higher = more cells survive
EPLC-272H = tested on: EPLC-272H
Method in brief: (§1)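 Each reported value is a median over duplicate plates. It expresses relative viability: treated-well nuclei count divided by vehicle-well nuclei count. Lung cancer cell lines in 1536-well plates were dosed by pin tool a day after seeding, alone with one drug or with a fixed anchor-drug dose plus five library-drug doses (not always all listed) in √10 steps, and nuclei were counted after 5 days.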

H3255 = tested on: H3255
Method in brief: as §1

HARA = tested on: HARA
Method in brief: as §1

LC-2-ad = tested on: LC-2-ad
Method in brief: as §1

LOU-NH91 = tested on: LOU-NH91
Method in brief: as §1

NCI-H1650 = tested on: NCI-H1650
Method in brief: as §1

NCI-H1651 = tested on: NCI-H1651
Method in brief: as §1

NCI-H1975 = tested on: NCI-H1975
Method in brief: as §1

NCI-H2009 = tested on: NCI-H2009
Method in brief: as §1

NCI-H2023 = tested on: NCI-H2023
Method in brief: as §1

NCI-H2085 = tested on: NCI-H2085
Method in brief: as §1

NCI-H2087 = tested on: NCI-H2087
Method in brief: as §1

NCI-H2170 = tested on: NCI-H2170
Method in brief: as §1

NCI-H2228 = tested on: NCI-H2228
Method in brief: as §1

NCI-H23 = tested on: NCI-H23
Method in brief: as §1

NCI-H441 = tested on: NCI-H441
Method in brief: as §1

NCI-H650 = tested on: NCI-H650
Method in brief: as §1

NCI-H727 = tested on: NCI-H727
Method in brief: as §1

NCI-H838 = tested on: NCI-H838
Method in brief: as §1

PC-3 [JPC-3] = tested on: PC-3 [JPC-3]
Method in brief: as §1

SW 1573 = tested on: SW 1573
Method in brief: as §1

SW 900 = tested on: SW 900
Method in brief: as §1

UMC-11 = tested on: UMC-11
Method in brief: as §1

CN1CCN(CCOc2cc(OC3CCOCC3)c3c(Nc4c(Cl)ccc5c4OCO5)ncnc3c2)CC1 [Saracatinib] + O=C(CCCCCCC(=O)Nc1ccccc1)NO [Vorinostat] (partner 1 µM)
relative viability (EPLC-272H; first compound 0.02 µM): 0.306 | relative viability (EPLC-272H; first compound 0.2 µM): 0.562 | relative viability (EPLC-272H; first compound 0.6325 µM): 0.63 | relative viability (EPLC-272H; first compound 2 µM): 0.424 | relative viability (H3255; first compound 0.02 µM): 0.79 | relative viability (H3255; first compound 0.2 µM): 0.684 | relative viability (H3255; first compound 0.6325 µM): 0.965 | relative viability (H3255; first compound 2 µM): 0.337 | relative viability (HARA; first compound 0.02 µM): 0.505 | relative viability (HARA; first compound 0.2 µM): 0.654 | relative viability (HARA; first compound 0.6325 µM): 0.62 | relative viability (HARA; first compound 2 µM): 0.572 | relative viability (LC-2-ad; first compound 0.02 µM): 0.757 | relative viability (LC-2-ad; first compound 0.2 µM): 0.668 | relative viability (LC-2-ad; first compound 0.6325 µM): 0.777 | relative viability (LC-2-ad; first compound 2 µM): 0.68 | relative viability (LOU-NH91; first compound 0.02 µM): 0.87 | relative viability (LOU-NH91; first compound 0.2 µM): 0.696 | relative viability (LOU-NH91; first compound 0.6325 µM): 0.903 | relative viability (LOU-NH91; first compound 2 µM): 0.628 | relative viability (NCI-H1650; first compound 0.02 µM): 0.654 | relative viability (NCI-H1650; first compound 0.2 µM): 0.377 | relative viability (NCI-H1650; first compound 0.6325 µM): 0.548 | relative viability (NCI-H1650; first compound 2 µM): 0.492 | relative viability (NCI-H1651; first compound 0.02 µM): 0.598 | relative viability (NCI-H1651; first compound 0.2 µM): 0.547 | relative viability (NCI-H1651; first compound 0.6325 µM): 0.598 | relative viability (NCI-H1651; first compound 2 µM): 0.554 | relative viability (NCI-H1975; first compound 0.02 µM): 0.72 | relative viability (NCI-H1975; first compound 0.2 µM): 0.716 | relative viability (NCI-H1975; first compound 0.6325 µM): 0.725 | relative viability (NCI-H1975; first compound 2 µM): 0.563 | relative viability (NCI-H2009; first compound 0.02 µM): 0.754 | relative viability (NCI-H2009; first compound 0.2 µM): 0.653 | relative viability (NCI-H2009; first compound 0.6325 µM): 0.677 | relative viability (NCI-H2009; first compound 2 µM): 0.744 | relative viability (NCI-H2023; first compound 0.02 µM): 0.652 | relative viability (NCI-H2023; first compound 0.2 µM): 0.591 | relative viability (NCI-H2023; first compound 0.6325 µM): 0.73 | relative viability (NCI-H2023; first compound 2 µM): 0.566 | relative viability (NCI-H2085; first compound 0.02 µM): 0.816 | relative viability (NCI-H2085; first compound 0.2 µM): 0.694 | relative viability (NCI-H2085; first compound 0.6325 µM): 0.896 | relative viability (NCI-H2085; first compound 2 µM): 0.815 | relative viability (NCI-H2087; first compound 0.02 µM): 0.696 | relative viability (NCI-H2087; first compound 0.2 µM): 0.564 | relative viability (NCI-H2087; first compound 0.6325 µM): 0.54 | relative viability (NCI-H2087; first compound 2 µM): 0.95 | relative viability (NCI-H2170; first compound 0.02 µM): 0.746 | relative viability (NCI-H2170; first compound 0.2 µM): 0.678 | relative viability (NCI-H2170; first compound 0.6325 µM): 0.93 | relative viability (NCI-H2170; first compound 2 µM): 0.571 | relative viability (NCI-H2228; first compound 0.02 µM): 0.8 | relative viability (NCI-H2228; first compound 0.2 µM): 0.6 | relative viability (NCI-H2228; first compound 0.6325 µM): 0.611 | relative viability (NCI-H2228; first compound 2 µM): 0.633 | relative viability (NCI-H23; first compound 0.02 µM): 0.539 | relative viability (NCI-H23; first compound 0.6325 µM): 0.658 | relative viability (NCI-H23; first compound 2 µM): 0.442 | relative viability (NCI-H441; first compound 0.02 µM): 0.84 | relative viability (NCI-H441; first compound 0.2 µM): 0.731 | relative viability (NCI-H441; first compound 0.6325 µM): 0.913 | relative viability (NCI-H441; first compound 2 µM): 0.94 | relative viability (NCI-H650; first compound 0.02 µM): 0.5 | relative viability (NCI-H650; first compound 0.2 µM): 0.365 | relative viability (NCI-H650; first compound 0.6325 µM): 0.384 | relative viability (NCI-H650; first compound 2 µM): 0.857 | relative viability (NCI-H727; first compound 0.02 µM): 1.12 | relative viability (NCI-H727; first compound 0.2 µM): 0.996 | relative viability (NCI-H727; first compound 0.6325 µM): 1.23 | relative viability (NCI-H727; first compound 2 µM): 0.888 | relative viability (NCI-H838; first compound 0.02 µM): 0.685 | relative viability (NCI-H838; first compound 0.2 µM): 0.681 | relative viability (NCI-H838; first compound 0.6325 µM): 0.721 | relative viability (NCI-H838; first compound 2 µM): 0.765 | relative viability (PC-3 [JPC-3]; first compound 0.02 µM): 0.819 | relative viability (PC-3 [JPC-3]; first compound 0.2 µM): 0.47 | relative viability (PC-3 [JPC-3]; first compound 0.6325 µM): 0.529 | relative viability (PC-3 [JPC-3]; first compound 2 µM): 0.477 | relative viability (SW 1573; first compound 0.02 µM): 0.699 | relative viability (SW 1573; first compound 0.2 µM): 0.702 | relative viability (SW 1573; first compound 0.6325 µM): 0.664 | relative viability (SW 1573; first compound 2 µM): 0.47 | relative viability (SW 900; first compound 0.02 µM): 0.683 | relative viability (SW 900; first compound 0.2 µM): 0.407 | relative viability (SW 900; first compound 0.6325 µM): 0.676 | relative viability (SW 900; first compound 2 µM): 0.367 | relative viability (UMC-11; first compound 0.02 µM): 0.376 | relative viability (UMC-11; first compound 0.2 µM): 0.363 | relative viability (UMC-11; first compound 0.6325 µM): 0.388 | relative viability (UMC-11; first compound 2 µM): 0.253
